Test [1] addresses T1, Prostaglandin G/H synthase 1 (Ovis aries, UniProt P05979).
T1 sequence (P05979 whole entry): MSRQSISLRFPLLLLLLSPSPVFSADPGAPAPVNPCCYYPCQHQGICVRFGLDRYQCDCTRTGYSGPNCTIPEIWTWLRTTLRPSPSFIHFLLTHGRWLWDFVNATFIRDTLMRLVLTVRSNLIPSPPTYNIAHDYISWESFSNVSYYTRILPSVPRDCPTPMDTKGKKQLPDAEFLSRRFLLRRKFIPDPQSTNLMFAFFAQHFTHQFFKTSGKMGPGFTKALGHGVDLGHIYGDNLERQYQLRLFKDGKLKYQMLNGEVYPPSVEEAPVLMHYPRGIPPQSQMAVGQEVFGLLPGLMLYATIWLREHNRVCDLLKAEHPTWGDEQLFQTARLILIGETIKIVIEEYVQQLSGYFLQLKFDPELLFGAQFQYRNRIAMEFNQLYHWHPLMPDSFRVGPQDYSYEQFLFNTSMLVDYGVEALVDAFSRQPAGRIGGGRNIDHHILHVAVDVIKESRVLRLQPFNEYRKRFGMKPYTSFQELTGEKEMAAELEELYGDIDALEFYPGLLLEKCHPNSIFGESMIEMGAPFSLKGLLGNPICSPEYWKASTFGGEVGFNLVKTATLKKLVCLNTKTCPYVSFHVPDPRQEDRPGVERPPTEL
The experiment in a line: Inhibition of ovine COX-1 using arachidonic acid as substrate in presence of hemin by TMPD reagent-based colorimetry.

In test [2] the target is T2, Polyunsaturated fatty acid 5-lipoxygenase (Homo sapiens, UniProt P09917).
T2 sequence (P09917 whole entry): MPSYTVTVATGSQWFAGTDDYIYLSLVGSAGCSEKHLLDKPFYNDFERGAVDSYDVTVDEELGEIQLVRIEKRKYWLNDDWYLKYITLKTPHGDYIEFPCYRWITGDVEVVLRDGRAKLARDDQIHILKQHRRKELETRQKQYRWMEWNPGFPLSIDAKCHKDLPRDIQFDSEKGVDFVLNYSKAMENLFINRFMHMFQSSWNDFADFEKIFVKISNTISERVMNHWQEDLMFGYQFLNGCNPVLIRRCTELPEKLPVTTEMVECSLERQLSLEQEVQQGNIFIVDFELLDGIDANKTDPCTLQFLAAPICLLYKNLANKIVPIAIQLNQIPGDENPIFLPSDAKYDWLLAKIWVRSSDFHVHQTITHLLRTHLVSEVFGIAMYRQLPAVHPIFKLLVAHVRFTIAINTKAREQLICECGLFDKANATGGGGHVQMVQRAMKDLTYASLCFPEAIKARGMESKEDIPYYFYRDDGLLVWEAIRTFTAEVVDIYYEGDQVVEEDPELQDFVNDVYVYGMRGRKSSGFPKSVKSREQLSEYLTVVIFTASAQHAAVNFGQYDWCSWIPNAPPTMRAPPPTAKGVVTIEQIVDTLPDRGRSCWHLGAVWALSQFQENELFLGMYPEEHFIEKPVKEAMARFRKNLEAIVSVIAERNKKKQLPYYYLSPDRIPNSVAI
The experiment in a line: Inhibition of 5-LOX (unknown origin) using arachidonic acid as substrate preincubated for 5 mins followed by substrate addition measured after 10 mins by spectrophotometry.

A further test deals with A549. The experiment in a line: Cytotoxicity against human A549 cells assessed as growth inhibition incubated for 48 hrs by SRB assay. Conditions: A549, 48 h.
The test system of the next test is COLO 205. The experiment in a line: Cytotoxicity against human COLO 205 cells assessed as growth inhibition incubated for 48 hrs by SRB assay. The conditions noted are these: COLO 205, 48 h.
A further test relates to MIA PaCa-2. The experiment in a line: Cytotoxicity against human MIA PaCa-2 cells assessed as growth inhibition incubated for 48 hrs by SRB assay. Conditions: MIA PaCa-2, 48 h.
Test [3] concerns Rattus norvegicus. The experiment in a line: Anti-inflammatory activity in arachidonic acid-induced paw edema Wistar rat model assessed as swelling thickness of paw at 10 mg/kg, po measured after 1 hr by digital vernier caliper (reference value: 6.51 +/- 0.37 millimeter). The test is classed as functional.
The test system of test [4] is Rattus norvegicus. The experiment in a line: Anti-inflammatory activity in arachidonic acid-induced paw edema Wistar rat model assessed as protection against swelling thickness of paw at 10 mg/kg, po measured after 1 hr by digital vernier caliper (reference value: 0 %). The test is classed as functional.

Structures can show the parent of a compound that is named as a salt.

Take `Fc1ccc(-c2nnc(CN3CCN(C(c4ccccc4)c4ccc(Cl)cc4)CC3)o2)cc1` (stereo not drawn): the IC50 came to 34.2 µM in test [1] and 11.6 µM in test [2].
Consider `Clc1ccc(C(c2ccccc2)N2CCN(Cc3nnc(-c4ccc(Cl)cc4Cl)o3)CC2)cc1` (stereo not drawn), for which the IC50 stood at 30.3 µM in test [1] and 14.4 µM in test [2].
Turning to `Cc1ccc(-c2nnc(CN3CCN(C(c4ccccc4)c4ccc(Cl)cc4)CC3)o2)cc1` (stereo not drawn), the IC50 in test [1] was found to be 32.1 µM; in test [2] it was 18.1 µM.
On to `COc1cccc(-c2nnc(CN3CCN(C(c4ccccc4)c4ccc(Cl)cc4)CC3)o2)c1` (stereo not drawn), for which the IC50 in test [1] stood at 36.3 µM; in test [2], 15.3 µM.
The like results for `N#Cc1cccc(-c2nnc(CN3CCN(C(c4ccccc4)c4ccc(Cl)cc4)CC3)o2)c1` (stereo not drawn) were, in that order, 23 µM and 15 µM.
In the case of `Oc1cccc(-c2nnc(CN3CCN(C(c4ccccc4)c4ccc(Cl)cc4)CC3)o2)c1` (stereo not drawn), the IC50 was 36.3 µM in test [1] and 20.3 µM in test [2].
The like results for `O=[N+]([O-])c1ccccc1-c1nnc(CN2CCN(C(c3ccccc3)c3ccc(Cl)cc3)CC2)o1` (stereo not drawn) were, in that order, 29.9 µM and 13.5 µM.
With `Clc1ccc(C(c2ccccc2)N2CCN(Cc3nnc(-c4ccccc4)o3)CC2)cc1` (stereo not drawn), the values for the IC50 in test [1] and in test [2] were 38.4 µM and 9.81 µM, respectively.
On to `FC(F)(F)Oc1ccc(-c2nnc(CN3CCN(C(c4ccccc4)c4ccc(Cl)cc4)CC3)o2)cc1` (stereo not drawn), for which the results for the IC50 in test [1] and in test [2] were 27.9 µM and 9.4 µM, respectively.
As to `Clc1ccc(C(c2ccccc2)N2CCN(Cc3nnc(-c4cccc(Cl)c4)o3)CC2)cc1` (stereo not drawn), the IC50 worked out at 32 µM in test [1] and 16.2 µM in test [2].
For the compound `Fc1ccc(-c2nnc(CN3CCN(C(c4ccccc4)c4ccc(Cl)cc4)CC3)o2)c(F)c1` (stereo not drawn), the half-inhibitory concentration (IC50) in test [1] is 34.8 µM; in test [2], 9.33 µM.
For `FC(F)(F)c1ccc(-c2nnc(CN3CCN(C(c4ccccc4)c4ccc(Cl)cc4)CC3)o2)cc1` (stereo not drawn), the IC50 in test [1] is 27 µM; in test [2] it was 13.7 µM.
The like results for `COc1ccc(-c2nnc(CN3CCN(C(c4ccccc4)c4ccc(Cl)cc4)CC3)o2)cc1` (stereo not drawn) were, in that order, 34.5 µM and 10.3 µM.
For the compound `Cc1cccc(-c2nnc(CN3CCN(C(c4ccccc4)c4ccc(Cl)cc4)CC3)o2)c1` (stereo not drawn), the figures for the IC50 in test [1] and in test [2] were 30.7 µM and 9.89 µM, respectively.
Regarding `N#Cc1ccc(-c2nnc(CN3CCN(C(c4ccccc4)c4ccc(Cl)cc4)CC3)o2)cc1` (stereo not drawn), the results for the IC50 in test [1] and in test [2] were 25.5 µM and 13.5 µM, respectively.
For the compound `COc1cccc2c1C(=O)c1c(O)c3c(c(O)c1C2=O)C[C@@](O)(C(=O)CO)C[C@@H]3O[C@H]1C[C@H](N)[C@H](O)[C@H](C)O1` [DOXORUBICIN HYDROCHLORIDE], the GI50 in the test on A549 turned out to be 0.077 µM; in the test on COLO 205 it was 0.1 µM; in the test with MIA PaCa-2, 0.002 µM.
As for `O=[N+]([O-])c1cc(-c2nnc(CN3CCN(C(c4ccccc4)c4ccc(Cl)cc4)CC3)o2)cc([N+](=O)[O-])c1` (stereo not drawn), the IC50 stood at 37.7 µM in test [1] and 18 µM in test [2].
With `Oc1ccc(-c2nnc(CN3CCN(C(c4ccccc4)c4ccc(Cl)cc4)CC3)o2)cc1` (stereo not drawn), the IC50 in test [1] was found to be 36.3 µM; in test [2], 10.8 µM.
For the compound `O=[N+]([O-])c1cc(-c2nnc(CN3CCN(C(c4ccccc4)c4ccc(Cl)cc4)CC3)o2)ccc1Cl` (stereo not drawn), the IC50 stood at 38.5 µM in test [1] and 11.2 µM in test [2].
On to `Fc1cc(F)c(-c2nnc(CN3CCN(C(c4ccccc4)c4ccc(Cl)cc4)CC3)o2)cc1F` (stereo not drawn), for which the IC50 was determined as 32.7 µM in test [1] and 19.9 µM in test [2].
Consider `CC(c1cc2ccccc2s1)N(O)C(N)=O` (stereo not drawn) [ZILEUTON], for which the Activity in the test on Rattus norvegicus [3] came to 3.39 mm; in the test on Rattus norvegicus [4], 47.95%.

These data come from ChEMBL document CHEMBL6134766, “Design, synthesis, and evaluation of benzhydrylpiperazine-based novel dual COX-2/5-LOX inhibitors with anti-inflammatory and anti-cancer activity” (RSC Med Chem, 2025).
